Converted amounts (≈) assume the structure as drawn.

The target of one data set is VR1 receptor (Homo sapiens, UniProt Q8NER1). The following applies: whole cells, intracellular Ca2+ imaging, assay of WO 2008018827; read-out: IC50, antagonist of capsaicin responses; cited from earlier work.
Data set [1] can be described thus: Thermal stability (TGA, variable temperature XRPD). In kind it is physicochemical. The procedure: Crystals of Form C can be converted (3) to crystals of Form A. For example, crystals of Form C are converted to crystals of Form A by heating the crystals of Form C to 155° C. under nitrogen. Furthermore, crystals of Form C can be converted (5) to crystals of Form F. For example, crystals of Form C are converted to crystals of Form F by heating to 136° C. under nitrogen. […] Further heating of this sample generates a mixture of crystals of Form A and Form F.
Compound 1 appears to be chemically stable up to the decomposition temperature of about 250° C. […] The solid-state stability of the crystalline forms is compared by evaluating the relative “thermodynamic stability” of the crystalline forms and the interconversion between crystalline forms upon heating or when slurrying.
TGA was conducted for each crystalline form using a TA Q500/Q5000 TGA from TA Instruments. For each analysis, the TGA cell/sample chamber was purged with ultra-high purity nitrogen gas. The sample crystal was placed into the bottom of an open aluminium pan. […] The weight was plotted versus the measured sample temperature. The data were reported in % of the initial weight. The TGA thermograms for Forms A to F were obtained and can be seen at FIGS. 7 to 12.

Data set [2] is described as follows: Approximate solubility of crystals of Form A at room temperature. The following applies: thermodynamic from solid. In kind it is physicochemical. The procedure: Approximately 2 mg solids were added into a 3-mL glass vial. Solvents as listed in Table 7 were then added stepwise into the vials until the solids were dissolved or a total volume of 1 mL was reached. The results are summarized in Table 7, and were used to guide solvent selection in the polymorph screening.

Data set [3] can be described thus: Slurry conversion of Form A/Form E and Form A/Form F mixtures in IPA. It is filed as physicochemical. The following applies: equal-mass mixtures with Form E or Form F in pre-saturated IPA, room temperature, 48 h. The procedure:
Excess amounts of crystals of Form A were added to 2 mL of IPA. The mixture was magnetically stirred at a speed of 750 rpm at room temperature overnight to obtain a saturated solution. The saturated solution was filtered on a PTFE membrane (0.45 μm) to remove the excess solids.
An equal-mass physical mixture of crystals of Form A and Form E (6 mg of each Form) was added into 0.5 mL of the pre-saturated IPA solution and magnetically stirred at a speed of 750 rpm for 48 h. Solids were isolated from the suspension by centrifugation and an XRPD test was performed (shown at FIG. 19(b)).
Similarly, an equal-mass physical mixture of crystals of Form A and Form F (6 mg of each Form) was added into 0.5 mL of the pre-saturated IPA solution and magnetically stirred at a speed of 750 rpm for 48 h. Solids were isolated from the suspension by centrifugation and an XRPD test was performed (shown at FIG. 19(c)).
In the case of both mixtures, only crystals of Form A were isolated after stirring for 48 h.

Data set [4] can be described thus: Stability tests for Form A (temperature, relative humidity, compression; XRPD). In kind it is physicochemical. As for the experimental part:
Experiments were conducted to evaluate the stability of Form A under various temperature, relative humidity and compression conditions.

Chain of VR1 receptor (Q8NER1 whole entry): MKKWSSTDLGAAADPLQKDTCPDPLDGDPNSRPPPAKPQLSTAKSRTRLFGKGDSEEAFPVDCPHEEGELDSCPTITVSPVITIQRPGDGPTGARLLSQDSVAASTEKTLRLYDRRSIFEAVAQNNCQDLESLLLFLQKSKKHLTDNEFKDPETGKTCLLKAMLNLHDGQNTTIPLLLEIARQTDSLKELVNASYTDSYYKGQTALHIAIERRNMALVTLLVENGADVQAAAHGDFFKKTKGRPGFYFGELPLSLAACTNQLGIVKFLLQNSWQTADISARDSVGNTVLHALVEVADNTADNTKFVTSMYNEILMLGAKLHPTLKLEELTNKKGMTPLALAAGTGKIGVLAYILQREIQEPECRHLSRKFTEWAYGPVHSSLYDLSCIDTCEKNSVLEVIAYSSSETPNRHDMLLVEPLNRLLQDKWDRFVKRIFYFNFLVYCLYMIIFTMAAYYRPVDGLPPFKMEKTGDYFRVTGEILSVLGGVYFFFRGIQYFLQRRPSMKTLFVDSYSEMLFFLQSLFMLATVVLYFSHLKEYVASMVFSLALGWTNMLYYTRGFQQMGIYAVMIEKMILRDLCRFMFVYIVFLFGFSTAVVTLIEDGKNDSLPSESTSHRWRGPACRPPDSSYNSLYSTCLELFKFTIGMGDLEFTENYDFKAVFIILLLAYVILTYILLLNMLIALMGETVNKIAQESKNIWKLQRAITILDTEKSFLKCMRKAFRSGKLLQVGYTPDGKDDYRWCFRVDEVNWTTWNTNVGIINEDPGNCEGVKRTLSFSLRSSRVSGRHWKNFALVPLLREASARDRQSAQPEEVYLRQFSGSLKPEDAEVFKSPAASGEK

As a reminder, the IC50 is the point on the concentration scale where inhibition reaches its midpoint. For `C[C@H](NC(=O)Cn1cnc2cccc(C#N)c21)c1ccc(C(C)(C)C#N)cc1` [Compound 1, (S)-2-(7-Cyano-1H-benzimidazol-1-yl)-N-{1-[4-(1-cyano-1-methylethyl)phenyl]ethyl}acetamide], at VR1 receptor, the IC50 was 41 to 49 nM. Further, in data set [1] (TGA, 10° C./min, nitrogen), the “Decomposition temperature (chemically stable up to)” value is “about 250 °C”.
The solubility is the concentration that dissolves in the medium under given conditions. `C[C@H](NC(=O)Cn1cnc2cccc(C#N)c21)c1ccc(C(C)(C)C#N)cc1` [Form A, (S)-2-(7-Cyano-1H-benzimidazol-1-yl)-N-{1-[4-(1-cyano-1-methylethyl)phenyl]ethyl} acetamide]: the solubility was greater than 36 mg/mL in data set [2] (25 °C, organic solvent or mixture, 1,4-Dioxane, room temperature); greater than 36 mg/mL in data set [2] (25 °C, organic solvent or mixture, 2-MeTHF, room temperature); greater than 40 mg/mL in data set [2] (25 °C, organic solvent or mixture, ACN, room temperature); greater than 38 mg/mL in data set [2] (25 °C, organic solvent or mixture, Acetone, room temperature); 7.3 to 22 mg/mL (≈ 19.7 to 59.2 mM) in data set [2] (25 °C, organic solvent or mixture, Anisole, room temperature); greater than 42 mg/mL in data set [2] (25 °C, organic solvent or mixture, CHCl3, room temperature). Further, the solubility is greater than 40 mg/mL in data set [2] (25 °C, organic solvent or mixture, DCM, room temperature); greater than 36 mg/mL in data set [2] (25 °C, organic solvent or mixture, DMAc, room temperature); greater than 44 mg/mL in data set [2] (25 °C, organic solvent or mixture, DMSO, room temperature); 22 to 44 mg/mL (≈ 59.2 to 118 mM) in data set [2] (25 °C, organic solvent or mixture, EtOAc, room temperature); greater than 40 mg/mL in data set [2] (25 °C, organic solvent or mixture, EtOH, room temperature); 7 to 21 mg/mL (≈ 18.8 to 56.5 mM) in data set [2] (25 °C, organic solvent or mixture, IPA, room temperature). For the same molecule, the solubility in data set [2] (25 °C, organic solvent or mixture, IPAc, room temperature) is 6.7 to 20 mg/mL (≈ 18 to 53.8 mM); in data set [2] (25 °C, organic solvent or mixture, MEK, room temperature), greater than 40 mg/mL; in data set [2] (25 °C, organic solvent or mixture, MIBK, room temperature), 18 to 36 mg/mL (≈ 48.5 to 96.9 mM); in data set [2] (25 °C, organic solvent or mixture, MTBE, room temperature), less than 1.8 mg/mL; in data set [2] (25 °C, organic solvent or mixture, THF, room temperature), greater than 40 mg/mL; in data set [2] (25 °C, organic solvent or mixture, Toluene, room temperature), less than 2.1 mg/mL. In addition, the solubility in data set [2] (25 °C, organic solvent or mixture, n-Heptane, room temperature) is less than 2.2 mg/mL; in data set [2] (organic solvent or mixture, MeOH, room temperature (25° C.±2° C.)), greater than 42 mg/mL; in data set [2] (water, 25 °C, H2O, room temperature), less than 2.1 mg/mL. For the same molecule, the “Thermodynamic stability by slurry conversion” value in data set [3] is reported as “thermodynamically stable form at room temperature among the three anhydrate Forms”. For the same molecule, the “Effect of grinding on XRPD” value in data set [4] (aggressive grinding for 2 minutes) is recorded as “minor decrease in the relative intensity of the peaks”. In addition, in data set [4] (various temperature, relative humidity and compression conditions, compared to Form A as synthesized), the “Stability of the crystal structure (XRPD) on stressed samples” value is “crystalline structure remained generally similar”. In addition, in data set [1] (heating, variable temperature XRPD / DSC), the “Temperature up to which the crystalline form is stable” value is “about 167.9 °C”.
